The text below walks through data of patent publication US6281196A, “Isolation and structural elucidation of the human cancer cell growth inhibitory compound denominated agelagalastatin” (Arizona Board of Regents, priority 2000, dated 2001).

Series [1] has as its system ovary OVCAR-3. The series is described as follows: human cancer cell line growth inhibition, ovary OVCAR-3. In kind it is cell-based. The note with it: drug dose needed to reduce the percent growth to 50%. An excerpt:
(§1) The current cost to develop the necessary data required for lawful marketing of a new drug compound approaches ten million dollars per compound. Economics dictate that such a huge investment be made only when there is a reasonable likelihood that it can be recovered. Absent such a likelihood, there will be no investment and, without investment, the research requisite for the discovery of these potentially life saving compounds will cease. Current research in the control of cancer in the United States is coordinated by the National Cancer Institute (NCI). To determine whether a substance has anti-cancer properties, the NCI has established a systematic protocol. This protocol, which involves the testing of a substance against a standard cell line panel containing 60 human tumor cell lines, has been verified and is accepted in scientific circles. The protocol, and the established statistical means for analyzing the results obtained by the standardized testing are fully described in the literature. […]
(§2) Each drug is tested at five (5) doses: 100-10-1-0.1-0.01 μg/ml. Percent Growths are calculated for each dose. […]

In series [2] the test system is human cancer cell lines (brain SF-295, renal A498, colon KM20L2, melanoma SK-MEL-5, lung NCI-H460, ovarian OVCAR-3). Kind of series: in vitro activity against minipanel of human cancer cell lines. The following applies: portion of minipanel including brain SF-295, renal A498, colon KM20L2 and melanoma SK-MEL-5. In kind it is cell-based.
Description: as §1, §2

Series [3] deals with lung NCI-H460. The series is described as follows: human cancer cell line growth inhibition, lung NCI-H460. The following applies: drug dose needed to reduce the percent growth to 50%. In kind it is cell-based.
Description: as §1, §2

Series [4] deals with L1210 leukemia cell line. The note with it: cited from earlier work.
Series [5] deals with murine melanoma B16. The note with it: cited from earlier work.

Molecules are shown by their SMILES. Values after ≈ are worked out from the molar mass of the structure shown.

In general, GI50 refers to the concentration that inhibits growth by half. Read a high GI50 as less potent growth inhibition. On to `CCCCCCCCCCCCCCCCCCCCCC[C@@H](O)C(=O)N[C@@H](CO[C@H]1O[C@H](CO)[C@H](O)[C@H](O[C@@H]2O[C@@H]([C@@H](O)CO)[C@H](O)[C@H]2O[C@H]2O[C@@H]([C@@H](O)CO)[C@H](O)[C@H]2O)[C@H]1O)[C@H](O)[C@H](O)CCCCCCCCCCC(C)C` [agelagalastatin], for which the GI50 was 2.8 µg/mL (≈ 2.42 µM) in series [1] and 0.77 µg/mL (≈ 0.666 µM) in series [3]. The in vitro activity entry in series [2] was “significant in vitro activity”.
As to `CN1C(=O)NC2C3NC(=O)c4ccc(Br)n4C3CC21O` (centres unmarked) [agelastatin A], the cytotoxic entry in series [4] is “cytotoxic”.
Regarding `CCCCCCCCCCCCCCCCCCCCCCCCCC(=O)N[C@@H](CO[C@H]1O[C@H](CO)[C@H](O)[C@H](O)[C@H]1O)[C@H](O)[C@H](O)CCCCCCCCCCCCCC` [structural modification (5)], in series [5], the in vivo active result is “in vivo active”.
